Source: US12528818B2, “Compositions and methods for inhibition of RAS” (Leidos Biomedical Research, Inc., priority 2021, dated 2026)
pIC50: −log10 of the molar value. Like-named read-outs stand apart in the source and are kept apart here.

Tested on: pERK in NCI-H358 cells
Test: Cell-based pERK HTRF assay (pERK inhibition in H358 cells)
Conditions: pERK inhibition IC50, NCI-H358 cells, 30 min incubation, read-out: PERK in H358 cell

SMILES	pIC50 (Homo sapiens, NCI-H358, 0.5 h)	pIC50
C=CC(=O)N1CCN(c2nc(OC[C@]34CCCN3C[C@H](F)C4)nc3c(F)c(-c4ccc(F)c5sc(N)nc45)c(C(F)(F)F)cc23)[C@H](C)C1 [Compound 196]	> 7.00	–
C=CC(=O)N1C[C@@H](Nc2nc(OCC34CCCN3CCC4)nc3c(F)c(-c4ccc(F)c5sc(N)nc45)c(Cl)cc23)[C@H]1C [Compound 197]	< 6.00	–
C=CC(=O)N1CC[C@@H](N(C)c2nc(OC[C@@]34CCCN3C[C@H](F)C4)nc3c(F)c(-c4ccc(F)c5sc(N)nc45)c(C(F)(F)F)cc23)C1 [Compound 198]	> 7.00	–
C=C(F)C(=O)N1CCN(c2nc(OC[C@]34CCCN3C[C@H](F)C4)nc3c(F)c(-c4ccc(F)c5sc(N)nc45)c(C(F)(F)F)cc23)[C@H](C)C1 [Compound 199]	6.00 to 7.00	–
C=CC(=O)N1CCN(c2c(C#N)c(OC[C@@]34CCCN3C[C@H](F)C4)nc3c(F)c(-c4ccc(F)c5sc(N)nc45)c(Cl)cc23)CC1 [Compound 200]	> 7.00	–
C=CC(=O)N1CC(N(C)c2nc(OC[C@@]34CCCN3C[C@H](OC)C4)nc3c(F)c(-c4ccc(F)c5sc(N)nc45)c(C(F)(F)F)cc23)C1 [Compound 201]	6.00 to 7.00	–
C=CC(=O)N1C[C@H](C)N(c2nc(OC[C@@]34CCCN3C[C@H](F)C4)nc3c(F)c(-c4ccc(F)c5sc(N)nc45)c(C(F)(F)F)cc23)C[C@H]1C [Compound 202, 1-((2R,5S)-4-(7-(2-amino-7-fluorobenzo[d]thiazol-4-yl)-8-fluoro-2-(((2R,7aS)-2-fluorotetrahydro-1H-pyrrolizin-7a(5H)-yl)methoxy)-6-(trifluoromethyl)quinazolin-4-yl)-2,5-dimethylpiperazin-1-yl)prop-2-en-1-one]	> 7.00	–
C=C(F)C(=O)N1C[C@H](C)N(c2nc(OC[C@@]34CCCN3C[C@H](F)C4)nc3c(F)c(-c4ccc(F)c5sc(N)nc45)c(C(F)(F)F)cc23)C[C@H]1C [Compound 203]	6.00 to 7.00	–
C=CC(=O)N1C[C@H](C)N(c2nc(OC[C@]34CCCN3C[C@H](F)C4)nc3c(F)c(-c4ccc(F)c5sc(N)nc45)c(C(F)(F)F)cc23)C[C@H]1C [Compound 204, 1-((2R,5S)-4-(7-(2-amino-7-fluorobenzo[d]thiazol-4-yl)-8-fluoro-2-(((2R,7aR)-2-fluorotetrahydro-1H-pyrrolizin-7a(5H)-yl)methoxy)-6-(trifluoromethyl)quinazolin-4-yl)-2,5-dimethylpiperazin-1-yl)prop-2-en-1-one]	> 7.00	–
C=C(F)C(=O)N1C[C@H](C)N(c2nc(OC[C@]34CCCN3C[C@H](F)C4)nc3c(F)c(-c4ccc(F)c5sc(N)nc45)c(C(F)(F)F)cc23)C[C@H]1C [Compound 205]	6.00 to 7.00	–
C=CC(=O)N1CC(N(CC)c2nc(OC[C@]34CCCN3C[C@H](F)C4)nc3c(F)c(-c4ccc(F)c5sc(N)nc45)c(C(F)(F)F)cc23)C1 [Compound 206]	6.00 to 7.00	–
C=CC(=O)N1CCN(c2nc(OC[C@@]34CCCN3C[C@H](F)C4)nc3c(F)c(-c4ccc(F)c5sc(N)nc45)c(C(F)(F)F)cc23)C[C@H]1C [Compound 207]	> 7.00	–
C=C(F)C(=O)N1CCN(c2nc(OC[C@@]34CCCN3C[C@H](F)C4)nc3c(F)c(-c4ccc(F)c5sc(N)nc45)c(C(F)(F)F)cc23)C[C@H]1C [Compound 208]	6.00 to 7.00	–
C=CC(=O)N1CCN(c2nc(OCC34CCCN3C[C@H](OC)C4)nc3c(F)c(-c4ccc(F)c5sc(N)nc45)c(C(F)(F)F)cc23)CC1 (some centres unmarked) [Compound 209]	> 7.00	–
C=CC(=O)N1CC(N(c2nc(OC[C@]34CCCN3C[C@H](F)C4)nc3c(F)c(-c4ccc(F)c5sc(N)nc45)c(Cl)cc23)C2CC2)C1 [Compound 210]	< 6.00	–
C=CC(=O)N1CC(Nc2nc(OCC34CCCN3CCC4)nc3c(F)c(-c4ccc(F)c5sc(N)nc45)c(Cl)cc23)[C@H]1C (some centres unmarked) [Compound 213]	< 6.00	–
C=CC(=O)N1[C@H](C)CN(c2nc(OC[C@]34CCCN3C[C@H](F)C4)nc3c(F)c(-c4ccc(F)c5sc(N)nc45)c(C(F)(F)F)cc23)C[C@@H]1C [Compound 215]	> 7.00	–
C=CC(=O)N1CCN(c2nc(OC[C@@]34CCCN3C[C@@H](F)C4)nc3c(F)c(-c4ccc(F)c5sc(N)nc45)c(C(F)(F)F)cc23)[C@H](C)C1 [Compound 217]	6.00 to 7.00	–
C=CC(=O)N1CCN(c2nc(OC[C@@]34CCCN3C[C@@H](F)C4)nc3c(F)c(-c4ccc(F)c5sc(N)nc45)c(C(F)(F)F)cc23)[C@@H](C)C1 [Compound 218]	> 7.00	–
C=CC(=O)N1C[C@H](C)N(c2nc(OC[C@@]34CCCN3C[C@@H](F)C4)nc3c(F)c(-c4ccc(F)c5sc(N)nc45)c(C(F)(F)F)cc23)C[C@H]1C [Compound 219]	> 7.00	–
C=CC(=O)N1CCN(c2nc(OC[C@@]34CCCN3C[C@@H](F)C4)nc3c(F)c(-c4ccc(F)c5sc(N)nc45)c(C(F)(F)F)cc23)C[C@H]1C [Compound 220]	> 7.00	–
C=CC(=O)N1CC(N(C)c2nc(OC[C@@]34CCCN3C[C@H](F)C4)nc3c(F)c(-c4ccc(F)c5sc(N)nc45)c(C(F)(F)F)cc23)C1 [Compound 223]	> 7.00	–

SMILES	pIC50 (Homo sapiens, NCI-H358, 0.5 h)	pIC50
C=CC(=O)N1[C@H](C)CN(c2nc(OC[C@@]34CCCN3C[C@@H](F)C4)nc3c(F)c(-c4ccc(F)c5sc(N)nc45)c(C(F)(F)F)cc23)C[C@@H]1C [Compound 224]	> 7.00	–
C=CC(=O)N1CC[C@@H](N(C)c2ncnc3c(F)c(-c4ccc(F)c5sc(N)nc45)c(C(F)(F)F)cc23)C1 [Compound 225]	6.00 to 7.00	–
C=CC(=O)N1CC[C@@H](N(C)c2nc(OCC34CCCN3CCC4)nc3c(F)c(-c4cc(O)cc5ccccc45)c(C(F)(F)F)cc23)C1 [Compound 226]	6.00 to 7.00	–
C=CC(=O)N1CC[C@@H](N(C)c2nc(OCC34CCCN3CCC4)nc3c(F)c(-c4c(O)cccc4F)c(C(F)(F)F)cc23)C1 [Compound 227]	< 6.00	–
C=CC(=O)N1CC[C@@H](N(C)c2nc(OC[C@@H]3CCCN3C)nc3c(F)c(-c4ccc(F)c5sc(N)nc45)c(C(F)(F)F)cc23)C1 [Compound 230]	6.00 to 7.00	–
C=CC(=O)N1C[C@H](C)N(c2nc(OC[C@@]34CCCN3C[C@H](F)C4)nc3c(F)c(-c4ccc(F)c5sc(N)nc45)c(OC(F)(F)F)cc23)C[C@H]1C [Compound 235, 1-((2R,5S)-4-(7-(2-amino-7-fluorobenzo[d]thiazol-4-yl)-8-fluoro-2-(((2R,7aS)-2-fluorotetrahydro-1H-pyrrolizin-7a(5H)-yl)methoxy)-6-(trifluoromethoxy)quinazolin-4-yl)-2,5-dimethylpiperazin-1-yl)prop-2-en-1-one]	> 7.00	–
C=CC(=O)N1CC[C@@H](N(C)c2nc(OC[C@@]34CCCN3C[C@H](F)C4)nc3c(F)c(-c4ccc(F)c5sc(N)nc45)c(OC(F)(F)F)cc23)C1 [Compound 238, 1-((3R)-3-((7-(2-amino-7-fluorobenzo[d]thiazol-4-yl)-8-fluoro-2-(((2R,7aS)-2-fluorotetrahydro-1H-pyrrolizin-7a(5H)-yl)methoxy)-6-(trifluoromethoxy)quinazolin-4-yl)(methyl)amino)pyrrolidin-1-yl)prop-2-en-1-one]	6.00 to 7.00	–
C=CC(=O)N1CCC[C@@H](N(C)c2nc(OC[C@@]34CCCN3C[C@H](F)C4)nc3c(F)c(-c4ccc(F)c5sc(N)nc45)c(C(F)(F)F)cc23)C1 [Compound 244]	–	> 7.00
C=CC(=O)N1CCC[C@@H](N(C)c2nc(OC[C@@]34CCCN3C[C@H](F)C4)nc3c(F)c(-c4ccc(F)c5sc(N)nc45)c(C(F)(F)F)cc23)C1 [Compound 245]	–	< 6.00
C=CC(=O)N1CCN(c2nc(OCC34CCCN3CCC4)nc3c(F)c(-c4ccc(F)c5sc(N)nc45)c(C(F)F)cc23)CC1 [Compound 246]	6.00 to 7.00	–
C=CC(=O)N1CC(N(C)c2nc(OC[C@@]34CCCN3C[C@H](F)C4)nc3c(F)c(-c4ccc(F)c5sc(N)nc45)c(Cl)cc23)C1 [Compound 247]	> 7.00	–
C=CC(=O)N1CC[C@@H](N(CC)c2ncnc3c(F)c(-c4ccc(F)c5sc(N)nc45)c(C(F)(F)F)cc23)C1 [Compound 248]	6.00 to 7.00	–
C=CC(=O)N1CC[C@@H](N(CC)c2nc(OCC34CCCN3CCC4)nc3c(F)c(-c4ccc(F)c5sc(N)nc45)c(C(F)(F)F)cc23)C1 [Compound 249]	6.00 to 7.00	–
C=CC(=O)N1C[C@H](C)N(c2nc(OC[C@@]34CCCN3C[C@H](F)C4)nc3c(F)c(-c4ccc(F)c5sc(N)c(C#N)c45)c(C(F)(F)F)cc23)C[C@H]1C [Compound 252, 4-(4-((2S,5R)-4-acryloyl-2,5-dimethylpiperazin-1-yl)-8-fluoro-2-(((2R,7aS)-2-fluorotetrahydro-1H-pyrrolizin-7a(5H)-yl)methoxy)-6-(trifluoromethyl)quinazolin-7-yl)-2-amino-7-fluorobenzo[b]thiophene-3-carbonitrile]	> 7.00	–
C=CC(=O)N1CC[C@@H](N(C)c2nc(OC[C@@]34CCCN3C[C@H](F)C4)nc3c(F)c(-c4ccc(F)c5sc(N)c(C#N)c45)c(C(F)(F)F)cc23)C1 [Compound 253]	> 7.00	–
C=CC(=O)N1CCN(c2nc(OCC34CCCN3CCC4)nc3c(F)c(-c4ccc(F)c5sc(N)nc45)c(OC(F)F)cc23)CC1 [Compound 254]	6.00 to 7.00	–
C=CC(=O)N1CC[C@@H](N(CC)c2nc(OC[C@@]34CCCN3C[C@H](F)C4)nc3c(F)c(-c4ccc(F)c5sc(N)nc45)c(C(F)(F)F)cc23)C1 [Compound 257]	> 7.00	–
C=CC(=O)N1CC[C@@H](N(C)c2nc(OC[C@@H]3CC(C)(C)CN3C)nc3c(F)c(-c4ccc(F)c5sc(N)nc45)c(C(F)(F)F)cc23)C1 [Compound 265]	> 7.00	–
C=CC(=O)N1C[C@H](C)N(c2nc(OC[C@@]34CCCN3C[C@H](F)C4)nc3c(F)c(-c4ccc(F)c5sc(N)nc45)c(Cl)cc23)C[C@H]1C [Compound 266]	> 7.00	–
C=CC(=O)N1C[C@H](C)N(c2nc(OC[C@]34CCCN3C[C@H](OC)C4)nc3c(F)c(-c4ccc(F)c5sc(N)nc45)c(C(F)(F)F)cc23)C[C@H]1C [Compound 269]	> 7.00	–
C=CC(=O)N1CC(Nc2nc(OC[C@@]34CCCN3C[C@H](F)C4)nc3c(F)c(-c4ccc(F)c5sc(N)nc45)c(C(F)(F)F)cc23)C1 [Compound 270]	> 7.00	–
C=CC(=O)N1CC[C@@H](N(C)c2nc(OC[C@@H]3C[C@@H](F)CN3C3CC3)nc3c(F)c(-c4ccc(F)c5sc(N)nc45)c(C(F)(F)F)cc23)C1 [Compound 273]	6.00 to 7.00	–
